Article PMC8877822, “Interrogation of the Structure–Activity Relationship of a Lipophilic Nitroaromatic Prodrug Series Designed for Cancer Gene Therapy Applications” (Pharmaceuticals, 2022)
Where two headings read alike, the source gives them in different places. Blank lines part the entries; values can stand above or below the molecule they belong to.

How the values were obtained:
[1] = in vivo; type: in vivo, mice; conditions: for MTD: NIH-III nude, mouse, in vivo, ip, i.p., read-out: Maximum tolerated dose (MTD)
Text: NfsA_Ec potency and bystander effect from the diffusion of activated metabolites is only one determinant of the therapeutic utility of a GDEPT prodrug. Overall, anti-tumor activity will also depend on the efficiency of metabolic activation at well-tolerated prodrug doses, determined mainly by the relationship between host toxicity and plasma/tumor pharmacokinetics. Like PR-104A, the three lead prodrugs (1, 2, and 6) contain an alcohol side chain that requires addition of a phosphate ester to increase water solubility for in vivo applications. […] Employing identical methods, we determined the MTD of compounds 2-P and 6-P to be 1000 µmol/kg and 1330 µmol/kg, respectively (data summary in Table S1). In preparation for efficacy testing against H1299 xenografts, we next determined the MTD of each compound (1-P, 2-P, and 6-P) in H1299 tumor-bearing mice to be 1330 µmol/kg, 750 µmol/kg, and 1330 µmol/kg, respectively (Table S1). In each case 1-P, 2-P, and 6-P administration (i.p.) was well tolerated, with no evidence of morbidity or mortality, accompanied by a minimal body weight loss (BWL) nadir of −2.2%, −4.0%, and −5.3%, respectively (MTD defined as <−15% average BWL).
(§1) An estimated starting dose was determined from related compounds. Animals were promptly euthanized if body weight loss exceeded 20% or if there were clinical signs of severe morbidity. The MTD was defined as the highest dose, at which all animals survived (death rate < 1/6) with no unacceptable morbidity, and where the next dose increment had caused at least one death. Tumors were inoculated onto the flanks of NIH-III nude mice by subcutaneous injection of 10^7 H1299 cells. Tumor-bearing mice were randomized to treatment groups (n = 5 mice per group) when tumors reached treatment size (300–350 mm^3) and injected with a single intraperitoneal dose of pre-prodrug. Tumor size and body weights were measured regularly. Tumor volume was calculated as π(Lxw^2)/6, where L is the major axis and w is the perpendicular minor axis. Animals were euthanized when the tumor volume had increased fourfold relative to pre-treatment volume (RTV4, survival endpoint) or if body weight loss exceeded 20% of the pre-treatment value. Kaplan–Meier plots were constructed, and median time to endpoint was calculated. Treatment efficacy was assessed by comparing the median survival time with untreated animals using the Log-rank test p-test (Sigmaplot version 11.0).
Supplementary Table S1. Summary of maximum tolerated dose of test compounds
Footnotes: BWL nadir % = body weight loss percentage (time independent nadir). HEP = humane endpoint. * =
Non-tumour bearing H1299 tumour bearing

[2] = test system: mixed H1299 xenograft containing 28% NfsA_Ec cells and 72% WT cells; assay: Tumor growth delay assay, mixed H1299 xenograft; type: in vivo, mice; conditions: for Survival time compared to PR-104 treated tumors: single i.p. dose: 1-P 1330 µmol/kg
Procedure: These ratios were broadly similar to those observed in HCT116 cells (Figure 2). A mixed H1299 xenograft model containing a minority percentage (28 ± 3.3%) of NfsA_Ec-expressing cells was used in order to rank the efficacy of the prodrugs in vivo. A model such as this necessitates the presence of a robust bystander effect to achieve a tumor growth delay. Tumor-bearing mice were administered a single intraperitoneal dose of prodrugs 1-P, 2-P, and 6-P at the H1299 tumor-bearing MTD. PR-104 was administered at 388 µmol/kg, the human equivalent dose (HED) in mice that provides a plasma AUCfree of PR-104A (38 µM-h) that equates to the human Q3W MTD of 1100 mg/m^2 [22].
as §1
Figure 5 In vivo efficacy of the three lead pre-prodrug compounds in a mixed H1299 xenograft containing 28% NfsA_Ec cells and 72% WT cells. (A) Tumor growth and (B) survival analysis of mice bearing 250 mm^3 H1299 tumors treated with a single intraperitoneal dose of prodrug on day 0. N = 5 animals per group. Control = PBS, PR-104 = 388 µmol/kg; 1-P = 1330 μmol/kg; 2-P = 750 μmol/kg; and 6-P = 1330 μmol/kg. Survival endpoint was 4× start volume (RTV4).

[3] = test system: SiHa xenografts; assay: Tumor excision assay, clonogenic cell kill of SiHa xenografts; type: in vivo, mice; conditions: 18 h after treatment, PR-104 380 µmol/kg i.p., 6-P 1330 µmol/kg i.p.
Procedure: The sensitivity of four cancer cell lines to prodrug 6 was determined under aerobic or anoxic conditions using an anti-proliferative IC50 assay. […] We also evaluated the hypoxic activity of 6-P versus PR-104 in vivo using a SiHa xenograft model (Figure 6B).
When tumors reached treatment size (>400 mm^3), mice were treated with drug by a single intraperitoneal injection of pre-prodrug or vehicle. Mice treated with ionizing radiation were exposed to 10 Gray prior to drug treatment, using a cobalt-60 source from an Eldorado G unit. Animals were euthanized 18 h after drug treatment, and tumors were excised and homogenized using sterile scissors until a fine mince was obtained. Following enzymatic dissociation (2.5 mg/mL pronase, 1 mg/mL collagenase, and 0.2 mg/mL DNAase in αMEM + 10% FBS + 1% P/S, 1 mL per 50 mg), cells were plated at concentrations of 10^2–10^5 cells per 60 mm dish and grown for 10 days before colonies were stained with methylene blue (2 g/L in 50% aqueous alcohol). Colonies containing >50 cells were counted as clonogenic survivors. From these values, plating efficiency (colonies/cells plated), number of clonogens per gram of tumor tissue (plating efficiency × total cells), and log cell kill relative to vehicle treated controls (log clonogens per gram) were calculated. Statistical analysis was undertaken using Holm–Sidak’s one-way ANOVA (Sigmaplot version 11.0).
(A) In vitro anti-proliferative activity of 6 in various cancer cell lines under aerobic and anoxic conditions. IC50 values were determined as the concentration of drug required to inhibit cell growth by 50% of untreated controls following 4 h drug exposure and five days regrowth (mean ±SEM of three or more independent determinations). (B) Clonogenic cell kill of SiHa xenografts 18 h after treatment with hypoxia activated prodrugs PR-104 (380 µmol/kg, i.p.) or 6-P (1330 µmol/kg, i.p.) with or without 10 Gy radiation.

[4] = LogD7.4 by low-volume octanol/PBS shake-flask method; type: physicochemical; conditions: n-octanol/PBS; octanol-water partition coefficient, shake-flask method at pH 7.4
Procedure: Distribution ratios (LogD7.4) were determined by a low-volume octanol/PBS shake-flask method. Briefly, saturated solutions of octanol and PBS were prepared by mixing equal volumes of n-octanol and PBS (pH 7.4) before being left for three days. The octanol and PBS phases were then carefully separated and left to stand for at least 24 h. Stock solutions (0.1–0.5 mM) of each compound were prepared in octanol saturated with PBS. The stock solutions were diluted with octanol saturated with PBS containing and inter-assay control (acridone) to a final compound concentration of 50 μM. Aliquots (450 μL) were then taken in triplicate, and 450 μL of PBS saturated with octanol was added into amber tubes. The tubes were then sealed in parafilm and rotated for 90 min at 30 rpm to equilibrate. After centrifugation (15,000× g, 5 min, 20°C) the octanol and PBS phases were separated into different tubes and the octanol phase diluted with methanol (1:5 v/v). Both phases were analyzed by HPLC (diode-array detector at 364 ± 10 nm) by injecting 50 μL of the PBS phase and 15 μL of the diluted octanol phase. The results were then expressed as the log ratio of the peak areas obtained from the octanol and PBS phases corrected for dilution and injection volume.

[5] = non-tumour bearing, cited from earlier work
[6] = H1299 tumour bearing, dose 1330 µmol/kg
[7] = non-tumour bearing, dose 1330 µmol/kg
[8] = non-tumour bearing, dose 1780 µmol/kg
[9] = H1299 tumour bearing, dose 1780 µmol/kg
[10] = H1299 tumour bearing, dose 750 µmol/kg
[11] = H1299 tumour bearing, dose 1000 µmol/kg
[12] = non-tumour bearing, dose 1000 µmol/kg

SMILES: CCS(=O)(=O)c1cc([N+](=O)[O-])c(C(=O)N(C)CCOP(=O)(O)O)cc1N(CCBr)CCBr [Compound 6-P, 2-(5-(bis(2-bromoethyl)amino)-4-(ethylsulfonyl)-N-methyl-2-nitrobenzamido)ethyl dihydrogen phosphate]
BWL nadir [1, 6]: -5.3%
Deaths [1, 6]: 0
HEP (humane endpoint) [1, 6]: 0
MTD (Yes/above) [1, 6]: Yes
MTD ([1]; H1299 tumor-bearing mice): 1330 µmol/kg
MTD ([1]; nude mice, non-tumour bearing): 1330 µmol/kg
BWL nadir [1, 7]: -1.8%
Deaths [1, 7]: 0
HEP (humane endpoint) [1, 7]: 0
MTD (Yes/above) [1, 7]: Yes
Deaths [1, 8]: 0
HEP (humane endpoint) [1, 8]: 2
MTD (Yes/above) [1, 8]: above
Tumor growth delay compared to PR-104 treated group ([2]; single i.p. dose, 6-P 1330 µmol/kg, PR-104 388 µmol/kg): 92%
Tumor growth delay (median time to RTV4) compared to untreated controls ([2]; single i.p. dose: PR-104 388 µmol/kg, 1-P 1330 µmol/kg, 2-P 750 µmol/kg, 6-P 1330 µmol/kg): 156%
Log cell kill, in combination with radiotherapy ([3]; 10 Gy radiation): 4.05
Log cell kill, single agent [3]: 1.06

SMILES: CCS(=O)(=O)c1cc([N+](=O)[O-])c(C(=O)NCCO)cc1N(CCBr)CCBr [Compound 5, 5-(Bis(2-bromoethyl)amino)-N-(2-hydroxyethyl)-4-(ethylsulfonyl)-2-nitrobenzamide]
logD at 90 min [4]: 1.5
melting point: 137 to 140 °C

SMILES: CS(=O)(=O)c1cc([N+](=O)[O-])c(C(=O)NCCOP(=O)(O)O)cc1N(CCBr)CCBr [Compound 1-P]
BWL nadir ([5]; dose 1780 µmol/kg): -2.8%
Deaths ([5]; dose 1780 µmol/kg): 0
HEP (humane endpoint) ([5]; dose 1780 µmol/kg): 0
MTD (Yes/above) ([5]; dose 1780 µmol/kg): Yes
BWL nadir ([5]; dose 2370 µmol/kg): -6.9%
Deaths ([5]; dose 2370 µmol/kg): 2
HEP (humane endpoint) ([5]; dose 2370 µmol/kg): 0
MTD (Yes/above) ([5]; dose 2370 µmol/kg): above
Maximum tolerated dose (MTD) ([5]; nude mice, i.p.): 1780 µmol/kg
BWL nadir [1, 6]: -2.2%
Deaths [1, 6]: 0
HEP (humane endpoint) [1, 6]: 0
MTD (Yes/above) [1, 6]: Yes
BWL nadir [1, 9]: -7.6%
Deaths [1, 9]: 1
HEP (humane endpoint) [1, 9]: 1
MTD (Yes/above) [1, 9]: above
MTD ([1]; H1299 tumor-bearing mice): 1330 µmol/kg
Survival time compared to PR-104 treated tumors ([2]; 2-P 750 µmol/kg): did not produce an improvement in survival time

melting point: 128 to 129 °C
SMILES: CCCS(=O)(=O)c1cc([N+](=O)[O-])c(C(=O)NCCO)cc1N(CCBr)CCBr [Compound 8]

SMILES: CN(CCOP(=O)(O)O)C(=O)c1cc(N(CCBr)CCBr)c(S(C)(=O)=O)cc1[N+](=O)[O-] [Compound 2-P, 2-(5-(Bis(2-bromoethyl)amino)-N-methyl-4-(methylsulfonyl)-2-nitrobenzamido)ethyl dihydrogen phosphate]
BWL nadir [1, 10]: -4.0%
Deaths [1, 10]: 0
HEP (humane endpoint) [1, 10]: 0
MTD (Yes/above) [1, 10]: Yes
BWL nadir [1, 11]: -8.7%
Deaths [1, 11]: 2
HEP (humane endpoint) [1, 11]: 0
MTD (Yes/above) [1, 11]: above
MTD ([1]; H1299 tumor-bearing mice): 750 µmol/kg
MTD ([1]; nude mice, non-tumour bearing): 1000 µmol/kg
BWL nadir [1, 12]: -2.5%
Deaths [1, 12]: 0
HEP (humane endpoint) [1, 12]: 0
MTD (Yes/above) [1, 12]: Yes
BWL nadir [1, 7]: -10.5%
Deaths [1, 7]: 1
HEP (humane endpoint) [1, 7]: 1
MTD (Yes/above) [1, 7]: above
Survival time compared to PR-104 treated tumors ([2]; 2-P 750 µmol/kg): did not produce an improvement in survival time

SMILES: CCN(CCO)C(=O)c1cc(N(CCBr)CCBr)c(S(C)(=O)=O)cc1[N+](=O)[O-] [Compound 3]
logD at 90 min [4]: 1.6
